Source: publication PMC2810227, “3-O-Methylfunicone, a Selective Inhibitor of Mammalian Y-Family DNA Polymerases from an Australian Sea Salt Fungal Strain” (Marine Drugs, 2009)
Where two headings read alike, the source gives them in different places.

Legend:
UV-treated HeLa cells = assay: UV-treated clonogenic assay; assay type: cell-based, human; conditions: 10 J/m^2 UV
Description: Figure 5. (A) Human cancer cell growth inhibition dose-response curves of 3-O-methyl-funicone (1). Various concentrations (0 to 150 μM) of compound 1 were incubated with human colon carcinoma (HCT116) cells (circle) and human cervix carcinoma (HeLa) cells (square) for 24 h. Rate of cell growth was determined by MTT assay as described in the Experimental section. Data are shown as the means ± SEM of five independent experiments. (B) Clonogenic survival of UV-treated HeLa cells by compound 1. Various concentrations (0 to 100 μM) of compound 1 were incubated with 10 J/m^2 UV-treated (closed circle) or untreated (open circle) HeLa cells. After 7 days, the number of colonies in each treatment group was counted. Values are the means ± SEM of two independent experiments.
For clonogenic assay, 600 cells of HeLa were seeded on 10-cm plates and allowed to grow for 24 h before 10 J/m^2 UV irradiation treatment. The cells were then treated with various concentrations of compound 1 for 24 h. The cells were then washed with PBS and fresh medium was added for an additional 7-day incubation in a humidified 10% CO2 incubator at 37 °C. […] The number of colonies in each treatment group was counted, and the cell survival data were presented as percentage of the colony numbers of treated/untreated cells.

human pol κ = target: T1, human pol κ (Homo sapiens, UniProt Q9UBT6); assay: Kinetic analysis of the inhibition of human pol κ; assay type: biochemical; conditions: for Ki: Dixon plot
T1 construct: A truncated form of pol κ (residues 1–560) with 6 x His-tags attached at the C-terminus; 6xHis (C); made in house; host or cells: E. coli
T1 sequence (Q9UBT6 1-560): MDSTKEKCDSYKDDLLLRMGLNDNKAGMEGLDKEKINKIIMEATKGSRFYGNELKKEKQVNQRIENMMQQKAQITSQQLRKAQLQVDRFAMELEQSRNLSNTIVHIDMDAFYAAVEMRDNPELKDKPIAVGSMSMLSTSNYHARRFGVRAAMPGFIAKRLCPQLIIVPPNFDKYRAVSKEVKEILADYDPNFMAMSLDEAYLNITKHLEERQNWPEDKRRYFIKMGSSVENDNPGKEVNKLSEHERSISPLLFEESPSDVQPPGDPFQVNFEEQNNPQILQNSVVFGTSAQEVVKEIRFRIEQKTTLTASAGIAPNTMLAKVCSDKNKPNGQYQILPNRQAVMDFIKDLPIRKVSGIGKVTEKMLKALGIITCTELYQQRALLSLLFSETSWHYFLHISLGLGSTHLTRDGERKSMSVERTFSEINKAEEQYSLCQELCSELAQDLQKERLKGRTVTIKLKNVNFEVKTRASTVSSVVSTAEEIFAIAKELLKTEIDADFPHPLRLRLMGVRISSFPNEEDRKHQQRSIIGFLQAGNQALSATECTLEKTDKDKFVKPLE
Source text: Next, to elucidate the mechanism of inhibition, the extent of inhibition as a function of DNA template-primer or dNTP substrate concentrations was studied (Figure 4). In kinetic analysis, poly(dA)/oligo(dT)18 and dTTP were used as the DNA template-primer and dNTP substrate, respectively. […] When activated DNA and four dNTP substrates were used as the DNA template-primer and dNTP substrate, respectively, the inhibition of human pol κ by compound 1 was competitive with the DNA template-primer and non-competitive with the dNTP substrate (data not shown).
Figure 4. Kinetic analysis of the inhibition of human pol κ by compound 1. (A) Human pol κ activity was measured in the absence (closed square) or presence of 4 μM (closed circle), 8 μM (closed triangle) or 12 μM (closed diamond) compound 1 using the indicated concentrations of the DNA template-primer. (B) Human pol κ activity was assayed with the indicated concentrations of the substrate dTTP in the presence of 4 μM (open circle), 8 μM (open triangle) or 12 μM (open diamond) or in the absence (open square) of compound 1. […] Amount of human pol κ in the assay mixture was 0.05 units.
The reaction mixtures for pol α, pol β, plant pols and prokaryotic pols were described previously; those for pol γ, and pols δ and ɛ were as described by Umeda et al. and Ogawa et al., respectively. The reaction mixtures for pols η, ι and κ were the same as for pol α, and the reaction mixture for pol λ was the same as for pol β. For pols, poly(dA)/oligo(dT)18 (A/T = 2/1) and dTTP were used as the DNA template-primer and nucleotide (i.e., dNTP) substrate, respectively. For HIV-1 reverse transcriptase, poly(rA)/oligo(dT)18 (A/T = 2/1) and dTTP were used as the DNA template-primer and nucleotide substrate, respectively. For TdT, oligo(dT)18 (3′-OH) and dTTP were used as the DNA primer and nucleotide substrate, respectively.
The compounds were dissolved in distilled dimethyl sulfoxide (DMSO) at various concentrations and sonicated for 30 sec. Aliquots of 4 μl sonicated samples were mixed with 16 μl of each enzyme (final amount 0.05 units) in 50 mM Tris-HCl (pH7.5) containing 1 mM dithiothreitol, 50% glycerol and 0.1 mM EDTA, and kept at 0 °C for 10 min. These inhibitor-enzyme mixtures (8 μl) were added to 16 μl of each of the enzyme standard reaction mixtures (final concentration of 50 mM Tris-HCl [pH 7.5], 1 mM dithiothreitol, 1 mM MgCl2, 15% glycerol, 10 μM poly(dA)/oligo(dT)18 and 10 μM [^3H]-dTTP), and incubation was carried out at 37 °C for 60 min, except for Taq pol, which was incubated at 74 °C for 60 min. Activity without the inhibitor was considered 100%, and the remaining activity at each concentration of the inhibitor was determined relative to this value. One unit of pol activity was defined as the amount of enzyme that catalyzed the incorporation of 1 nmol dNTP (i.e., dTTP) into synthetic DNA template-primers in 60 min at 37 °C under the normal reaction conditions for each enzyme.

[1] = test system: HUVEC (human umbilical vein endothelial cells); assay: Proliferation and growth of normal cells, HUVEC; assay type: cell-based; conditions: data not shown
calf primase of pol α = assay: Primase assay; assay type: biochemical; conditions: 100 μM
Description: The activities of calf primase of pol α, human telomerase, T7 RNA polymerase, mouse IMP dehydrogenase, human DNA topoisomerases I and II, T4 polynucleotide kinase and bovine DNase I were measured in standard assays according to the manufacturer’s specifications, as described by Tamiya-Koizumi et al., Oda et al., Nakayama et al., Mizushina et al., Ishimaru et al., Soltis et al. and Lu et al., respectively.

## C/C=C/c1occ(C(=O)c2c(OC)cc(OC)cc2C(=O)OC)c(=O)c1OC [compound 1, 3-O-methylfunicone]
UV-treated HeLa cells; 100 μM, HeLa, 7 days
  inhibiting clonogenic survival effect on UV exposed cells versus non-exposed cells: 4.3 fold
UV-treated HeLa cells; 0 to 100 μM
  HeLa cell UV-sensitivity: significantly enhanced
Human pol κ; 4 μM compound
  increase in Michaelis constant (Km), DNA template-primer: 295%
Human pol κ; 8 μM compound
  increase in Michaelis constant (Km), DNA template-primer: 467%
Human pol κ; 12 μM compound
  increase in Michaelis constant (Km), DNA template-primer: 812%
Human pol κ; 12 μM compound, decreased from 41.7 without compound
  Vmax for the dNTP substrate: 11.1 pmol/h
Human pol κ; read-out: inhibition constant (Ki) for the DNA template-primer
  Ki: 1300 nM
Human pol κ; read-out: inhibition constant (Ki) for the dTTP substrate
  Ki: 4400 nM
Human pol κ; activated DNA as template-primer, data not shown
  mode of inhibition with the DNA template-primer: competitive
Human pol κ; dTTP, double reciprocal plots
  mode of inhibition with the dNTP substrate: non-competitive
Human pol κ; four dNTP substrates, data not shown
  mode of inhibition with the dNTP substrate: non-competitive
Human pol κ; poly(dA)/oligo(dT)18, double reciprocal plots
  mode of inhibition with the DNA template-primer: competitive
Human pol κ; unchanged in the presence of 4, 8 and 12 μM compound
  apparent maximum velocity (Vmax), DNA template-primer: 52.6 pmol/h
[1]
  effect on cell proliferation and growth: did not influence
Calf primase of pol α
  effect on calf primase of pol α activity: did not influence
